The results in this text go back to ChEMBL document CHEMBL3576770, “Spirotetronate polyketides as leads in drug discovery” (J Nat Prod, 2015).

A short description of data set [1]: Antitumor activity against mouse EAC implanted in ddy-SLC mouse at 2.5 mg/kg, ip qd administered day 1 to 5 starting 24 hrs post tumor implantation. It is filed as functional, Ehrlich.
Another data set deals with L1210. Kind of data set: Cytotoxicity against mouse L1210 cells. The format is functional, cell-based.
A further data set has as its system P388. Kind of data set: Cytotoxicity against mouse P388 cells. It is filed as functional, cell-based.
Another data set relates to Staphylococcus aureus. Kind of data set: Antimicrobial activity against methicillin-resistant Staphylococcus aureus assessed as inhibition of microbial proliferation. The format is functional.
The target in data set [2] is T1, Gastrin/cholecystokinin type B receptor (Rattus norvegicus, UniProt P30553).
T1 sequence (P30553 whole entry): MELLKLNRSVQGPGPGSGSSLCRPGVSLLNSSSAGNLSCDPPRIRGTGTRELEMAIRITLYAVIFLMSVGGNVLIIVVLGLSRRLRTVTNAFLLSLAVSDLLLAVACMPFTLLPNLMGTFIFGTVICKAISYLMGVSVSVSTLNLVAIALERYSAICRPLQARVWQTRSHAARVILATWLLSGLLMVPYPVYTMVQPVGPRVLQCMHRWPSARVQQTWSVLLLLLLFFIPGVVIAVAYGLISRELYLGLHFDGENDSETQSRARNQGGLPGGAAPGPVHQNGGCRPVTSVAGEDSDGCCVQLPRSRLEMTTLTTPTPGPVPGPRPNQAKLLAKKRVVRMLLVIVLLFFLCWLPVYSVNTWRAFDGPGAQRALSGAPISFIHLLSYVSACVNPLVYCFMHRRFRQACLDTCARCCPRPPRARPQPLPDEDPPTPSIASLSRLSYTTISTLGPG
Kind of data set: Inhibition of CCK-B receptor in rat cerebral cortex. The format is tissue-based.

The nature of data set [3]: Inhibition of gastric ATPase (unknown origin). The format is tissue-based, Homo sapiens, Stomach.
The next data set relates to B16. The data set is described as follows: Cytotoxicity against mouse B16 cells. It is filed as functional.
Data set [4] in a line: Toxicity in ip dosed ICR mouse implanted with mouse EAC. The format is organism-based. To be noted: in vivo.

The T/C is the result in the treated group divided by that in the control group, in per cent. As a reminder, the IC50 is the concentration that gives 50% inhibition. Higher therefore signals lower potency. Broadly, the MIC is the lowest concentration that inhibits growth of the organism. As a reminder, the LD50 is the dose at which mortality reaches 50%. A low value points to greater toxicity.

For the compound `C=C1C(=O)[C@]2(C)C(=O)O[C@@]34C[C@H](C)C(C(=O)O)=C[C@@H]3CCC[C@@H](C)C[C@@H](C)[C@H]1OC24`, the T/C in data set [1] came out at 145.7%. Further, the IC50 in the data set on L1210 came out at 216 nM; with P388 (Mus musculus, P388), 89 nM.
For `C[C@@H]1C[C@H](C)C(=O)/C=C/[C@@H]2[C@@H](O)[C@H]3OC4=C(C(=O)O[C@@]42C[C@H]3C)C1=O`, the MIC in the data set with Staphylococcus aureus (Staphylococcus aureus, read-out: MIC) came to 5.2 µg/mL.
The compound `CC1=CC2C/C=C/C=C/CC(O)C/C=C/CC(C)C3C(CSC3C(=O)C(=O)O)C(=O)C3=C(O)C2(CC1C)OC3=O` (stereo not given) showed an IC50 in data set [2] of 3.6 nM.
With `C[C@@H]1C[C@H](C)C(=O)/C=C/[C@@H]2[C@@H](O)[C@H]3OC4=C(C(=O)O[C@@]42C[C@H]3C)C1=O` (single isomer, unassigned; atropisomer), the minimal inhibitory concentration (MIC) in the data set on Staphylococcus aureus came out at 3.5 µg/mL.
In data set [3], `CC[C@@H]1C[C@]23OC(=O)C(=C2O)[C@@H](O)[C@@H](C)C[C@H](C)CCC[C@]3(C)C=C1C` displayed an IC50 of 500 nM.
As to `COC(=O)N[C@@H]1[C@H](C)O[C@@H](O[C@H]2C/C=C(\C)[C@@H]3C=C[C@@H]4[C@@H](O[C@H]5C[C@H](O[C@@H]6CC[C@H](C)[C@@H](O[C@H]7C[C@H](O)[C@H](O[C@@H]8CC[C@H](O)[C@@H](C)O8)[C@@H](C)O7)O6)[C@H](OC(C)=O)[C@@H](C)O5)[C@@H](C)C[C@H](C)[C@H]4[C@]3(C)C(=O)C3=C(O)[C@@]4(CC(C=O)=C[C@H](O)[C@H]4/C=C/2C)OC3)C[C@@]1(C)N`, the INH with B16 was 25 µg/mL; in the data set with P388, 6.25 µg/mL.
Regarding `COc1ccc(Cl)c(C)c1C(=O)O[C@@H]1C[C@H](O[C@H]2[C@H](C)O[C@@H](O[C@H]3CCC[C@@H]4[C@@H]3C=C[C@H]3CCCC/C=C/[C@@H]5C=C(C(=O)O)[C@H](C)C[C@]56OC(=O)C(=C6O)OC(=O)[C@@]43C)C(O)[C@@H]2O)O[C@H](C)[C@H]1O` (stereo not given in full), in data set [4], the LD50 is 295 mg/kg.
